Assay results taken from patent publication US11629171B2, “Beta-hairpin peptidomimetics” (POLYPHOR AG, priority 2017, dated 2023).
Values after ≈ are worked out from the molar mass of the structure shown. Where a SMILES comes first, the peptide text is derived from it. Bridges are numbered along the chain shown (N, C = ends). Roman numbers before positions name the chains, in order. [ ]: non-standard residue; d: D form. The star is where a group is joined. Thr(ol) = C[C@@H](O)[C@H](N)CO; pGlu = O=C1CC[C@@H](C(=O)O)N1; Tle = CC(C)(C)[C@H](N)C(=O)O; Hiv = CC(C)[C@H](O)C(=O)O; dDab = NCC[C@@H](N)C(=O)O; hSer = N[C@@H](CCO)C(=O)O; Dab = NCC[C@H](N)C(=O)O; Dap = NC[C@H](N)C(=O)O; NHCH2CH2OH = OCCN*

Assays:
Assay type in all cases: cell-based
[1] = system: human red blood cells (hRBC); assay: Hemolysis; conditions: red cells of human, 1 h, 200
Method in brief: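 Percent lysis of human red cells was derived from OD540 of the supernatant, referenced to 2% Triton X-100, after a 1 h, 37° C incubation of 20% (v/v) cells with 200 μg/mL peptide.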

[2] = system: Escherichia coli ATCC 25922; conditions: ATCC 25922
Method in brief: (§1)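 Broth microdilution per CLSI; MH-II (cation-adjusted) + 0.002% P-80 final; ~10^6 CFU/mL inoculum; 2-fold peptide series; 35° C, 18-20 h; MIC = no visible growth, μg/mL.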

[3] = system: Klebsiella pneumoniae SSI #3010; conditions: SSI #3010
Method in brief: as §1

[4] = system: Escherichia coli 926415; conditions: 926415
Method in brief: as §1

[5] = system: Pseudomonas aeruginosa ATCC 27853; conditions: ATCC 27853
Method in brief: as §1

[6] = system: Klebsiella pneumoniae 968733; conditions: 968733
Method in brief: as §1

[7] = system: Acinetobacter baumannii 872842; conditions: 872842
Method in brief: as §1

[8] = system: Acinetobacter baumannii DSM 30008; conditions: DSM 30008
Method in brief: as §1

[9] = system: Enterobacter cloacae 848840; conditions: 848840
Method in brief: as §1

SMILES | Hemolysis at 200 μg/mL [1] | MIC [2] | MIC [3] | MIC [4] | MIC [5] | MIC [6] | MIC [7] | MIC [8] | MIC [9]
CC(C)C[C@@H]1NC(=O)[C@@H](CC(C)C)NC(=O)[C@H](CCN)NC(=O)[C@@H](NC(=O)[C@H](CCN)NC(=O)[C@@H](NC(=O)[C@H](CCN)NC(=O)CC[C@@H]2NC(=O)[C@H](CCN)NC(=O)[C@H](Cc3ccc(O)cc3)NC(=O)[C@@H](NC(=O)[C@@H](O)C(C)C)CSSC[C@@H](C(=O)NCCO)NC(=O)[C@H](C(C)(C)C)NC(=O)[C@H](CO)NC(=O)[C@H](Cc3c[nH]c4ccccc34)NC(=O)[C@H](CCO)NC(=O)[C@@H](CCN)NC2=O)[C@@H](C)O)CCNC(=O)[C@H]([C@@H](C)O)NC(=O)[C@H](CCN)NC(=O)[C@H](CCN)NC1=O [Ex. 72] (I: H-[Hiv]CY[Dab]E[dDab][hSer]WS[Tle]C-NHCH2CH2OH / II: [Dab]T[Dab][Dab][Dab][dL]L[Dab][Dab]T; disulfide I:2-I:11; amide I:5-II:N; lactam II:4-II:C) | <1% | 0.0625 µg/mL (≈ 0.0265 µM) | 0.125 µg/mL (≈ 0.053 µM) | 0.125 µg/mL (≈ 0.053 µM) | 0.125 µg/mL (≈ 0.053 µM) | 0.125 µg/mL (≈ 0.053 µM) | 0.0625 µg/mL (≈ 0.0265 µM) | 0.0625 µg/mL (≈ 0.0265 µM) | 0.25 µg/mL (≈ 0.106 µM)
CC(C)C[C@@H]1NC(=O)[C@@H](CC(C)C)NC(=O)[C@H](CCN)NC(=O)[C@@H](NC(=O)[C@H](CCN)NC(=O)[C@@H](NC(=O)[C@H](CCN)NC(=O)CC[C@@H]2NC(=O)[C@H](CCN)NC(=O)[C@H](Cc3ccc(O)cc3)NC(=O)[C@@H](NC(=O)[C@@H](O)C(C)C)CSSC[C@@H](C(=O)N[C@H](CO)[C@@H](C)O)NC(=O)[C@H](C(C)(C)C)NC(=O)[C@H](CO)NC(=O)[C@H](Cc3c[nH]c4ccccc34)NC(=O)[C@H](CCO)NC(=O)[C@@H](CCN)NC2=O)[C@@H](C)O)CCNC(=O)[C@H]([C@@H](C)O)NC(=O)[C@H](CCN)NC(=O)[C@H](CCN)NC1=O [Ex. 74] (I: H-[Hiv]CY[Dab]E[dDab][hSer]WS[Tle]C[Thr(ol)] / II: [Dab]T[Dab][Dab][Dab][dL]L[Dab][Dab]T; disulfide I:2-I:11; amide I:5-II:N; lactam II:4-II:C) | <1% | 0.0625 µg/mL (≈ 0.026 µM) | 0.0625 µg/mL (≈ 0.026 µM) | 0.25 µg/mL (≈ 0.104 µM) | 0.25 µg/mL (≈ 0.104 µM) | 0.0625 µg/mL (≈ 0.026 µM) | 0.0625 µg/mL (≈ 0.026 µM) | 0.0625 µg/mL (≈ 0.026 µM) | 0.125 µg/mL (≈ 0.0521 µM)
CC(C)C[C@@H]1NC(=O)[C@@H](CC(C)C)NC(=O)[C@H](CCN)NC(=O)[C@@H](NC(=O)[C@H](CCN)NC(=O)[C@@H](NC(=O)[C@H](CCN)NC(=O)CC[C@@H]2NC(=O)[C@H](CCN)NC(=O)[C@H](Cc3ccc(O)cc3)NC(=O)[C@@H](NC(=O)[C@@H](O)C(C)C)CSSC[C@@H](C(=O)N[C@H](CO)[C@@H](C)O)NC(=O)[C@H](C(C)(C)C)NC(=O)[C@H](CO)NC(=O)[C@H](Cc3c[nH]c4ccccc34)NC(=O)[C@H](CCO)NC(=O)[C@@H](CCCNC(=N)N)NC2=O)[C@@H](C)O)CCNC(=O)[C@H]([C@@H](C)O)NC(=O)[C@H](CCN)NC(=O)[C@H](CCN)NC1=O [Ex. 75] (I: H-[Hiv]CY[Dab]E[dR][hSer]WS[Tle]C[Thr(ol)] / II: [Dab]T[Dab][Dab][Dab][dL]L[Dab][Dab]T; disulfide I:2-I:11; amide I:5-II:N; lactam II:4-II:C) | <1% | 0.0625 µg/mL (≈ 0.0254 µM) | 0.125 µg/mL (≈ 0.0509 µM) | 0.125 µg/mL (≈ 0.0509 µM) | 0.125 µg/mL (≈ 0.0509 µM) | 0.125 µg/mL (≈ 0.0509 µM) | 0.0625 µg/mL (≈ 0.0254 µM) | 0.0625 µg/mL (≈ 0.0254 µM) | 0.125 µg/mL (≈ 0.0509 µM)
CC(C)C[C@@H]1NC(=O)[C@@H](CC(C)C)NC(=O)[C@H](CCN)NC(=O)[C@@H](NC(=O)[C@H](CCN)NC(=O)[C@@H](NC(=O)[C@H](CCN)NC(=O)CC[C@@H]2NC(=O)[C@H](CCN)NC(=O)[C@H](Cc3ccc(O)cc3)NC(=O)[C@@H](NC(=O)[C@@H](O)C(C)C)CSSC[C@@H](C(=O)N[C@H](CO)[C@@H](C)O)NC(=O)[C@H](C(C)(C)C)NC(=O)[C@H]([C@@H](C)O)NC(=O)[C@H](Cc3c[nH]c4ccccc34)NC(=O)[C@H](CCO)NC(=O)[C@@H](CCN)NC2=O)[C@@H](C)O)CCNC(=O)[C@H]([C@@H](C)O)NC(=O)[C@H](CCN)NC(=O)[C@H](CCN)NC1=O [Ex. 76] (I: H-[Hiv]CY[Dab]E[dDab][hSer]WT[Tle]C[Thr(ol)] / II: [Dab]T[Dab][Dab][Dab][dL]L[Dab][Dab]T; disulfide I:2-I:11; amide I:5-II:N; lactam II:4-II:C) | 1% | 0.0625 µg/mL (≈ 0.0259 µM) | 0.125 µg/mL (≈ 0.0518 µM) | 0.125 µg/mL (≈ 0.0518 µM) | 0.25 µg/mL (≈ 0.104 µM) | 0.125 µg/mL (≈ 0.0518 µM) | 0.25 µg/mL (≈ 0.104 µM) | 0.0625 µg/mL (≈ 0.0259 µM) | 0.125 µg/mL (≈ 0.0518 µM)
CC(C)C[C@@H]1NC(=O)[C@@H](CC(C)C)NC(=O)[C@H](CCN)NC(=O)[C@@H](NC(=O)[C@H](CCN)NC(=O)[C@@H](NC(=O)[C@H](CCN)NC(=O)CC[C@@H]2NC(=O)[C@H](CCN)NC(=O)[C@H](Cc3ccc(O)cc3)NC(=O)[C@@H](NC(=O)[C@@H]3CCC(=O)N3)CSSC[C@@H](C(=O)N[C@H](CO)[C@@H](C)O)NC(=O)[C@H](C(C)(C)C)NC(=O)[C@H](CO)NC(=O)[C@H](Cc3c[nH]c4ccccc34)NC(=O)[C@H](CCO)NC(=O)[C@@H](CCN)NC2=O)[C@@H](C)O)CCNC(=O)[C@H]([C@@H](C)O)NC(=O)[C@H](CCN)NC(=O)[C@H](CCN)NC1=O [Ex. 77] (I: [pGlu]CY[Dab]E[dDab][hSer]WS[Tle]C[Thr(ol)] / II: [Dab]T[Dab][Dab][Dab][dL]L[Dab][Dab]T; disulfide I:2-I:11; amide I:5-II:N; lactam II:4-II:C) | <1% | 0.125 µg/mL (≈ 0.0518 µM) | 0.125 µg/mL (≈ 0.0518 µM) | 0.25 µg/mL (≈ 0.104 µM) | 0.125 µg/mL (≈ 0.0518 µM) | 0.25 µg/mL (≈ 0.104 µM) | 0.25 µg/mL (≈ 0.104 µM) | 0.125 µg/mL (≈ 0.0518 µM) | 0.25 µg/mL (≈ 0.104 µM)
CC(C)C[C@@H]1NC(=O)[C@@H](CC(C)C)NC(=O)[C@H](CCN)NC(=O)[C@@H](NC(=O)[C@H](CCN)NC(=O)[C@@H](NC(=O)[C@H](CCN)NC(=O)CC[C@@H]2NC(=O)[C@H](CCN)NC(=O)[C@H](Cc3ccc(O)cc3)NC(=O)[C@@H](NC(=O)[C@@H](O)C(C)C)CSSC[C@@H](C(=O)N[C@H](CO)[C@@H](C)O)NC(=O)[C@H](C(C)C)NC(=O)[C@H](CO)NC(=O)[C@H](Cc3c[nH]c4ccccc34)NC(=O)[C@H](CCO)NC(=O)[C@@H](CCN)NC2=O)[C@@H](C)O)CCNC(=O)[C@H]([C@@H](C)O)NC(=O)[C@H](CCN)NC(=O)[C@H](CCN)NC1=O [Ex. 78] (I: H-[Hiv]CY[Dab]E[dDab][hSer]WSVC[Thr(ol)] / II: [Dab]T[Dab][Dab][Dab][dL]L[Dab][Dab]T; disulfide I:2-I:11; amide I:5-II:N; lactam II:4-II:C) | <1% | 0.03125 µg/mL (≈ 0.0131 µM) | 0.25 µg/mL (≈ 0.105 µM) | 0.125 µg/mL (≈ 0.0524 µM) | 0.125 µg/mL (≈ 0.0524 µM) | 0.0625 µg/mL (≈ 0.0262 µM) | 0.125 µg/mL (≈ 0.0524 µM) | 0.0625 µg/mL (≈ 0.0262 µM) | 2 µg/mL (≈ 0.838 µM)
CC(C)C[C@@H]1NC(=O)[C@@H](CC(C)C)NC(=O)[C@H](CCN)NC(=O)[C@@H](NC(=O)[C@H](CCN)NC(=O)[C@@H](NC(=O)[C@H](CCN)NC(=O)CC[C@@H]2NC(=O)[C@H](CN)NC(=O)[C@H](Cc3ccc(O)cc3)NC(=O)[C@@H](NC(=O)[C@@H](O)C(C)C)CSSC[C@@H](C(=O)N[C@H](CO)[C@@H](C)O)NC(=O)[C@H](C(C)(C)C)NC(=O)[C@H](CO)NC(=O)[C@H](Cc3c[nH]c4ccccc34)NC(=O)[C@H](CCO)NC(=O)[C@@H](CCN)NC2=O)[C@@H](C)O)CCNC(=O)[C@H]([C@@H](C)O)NC(=O)[C@H](CCN)NC(=O)[C@H](CCN)NC1=O [Ex. 79] (I: H-[Hiv]CY[Dap]E[dDab][hSer]WS[Tle]C[Thr(ol)] / II: [Dab]T[Dab][Dab][Dab][dL]L[Dab][Dab]T; disulfide I:2-I:11; amide I:5-II:N; lactam II:4-II:C) | <1% | 0.0625 µg/mL (≈ 0.0262 µM) | 0.0625 µg/mL (≈ 0.0262 µM) | 0.0625 µg/mL (≈ 0.0262 µM) | 0.125 µg/mL (≈ 0.0524 µM) | 0.0625 µg/mL (≈ 0.0262 µM) | 0.0625 µg/mL (≈ 0.0262 µM) | 0.03125 µg/mL (≈ 0.0131 µM) | 0.0625 µg/mL (≈ 0.0262 µM)
